B1: SHR-1210: anti-PD-1 antibody SHR-1210, in clinical stage (antibody, chains of the INN, looked up, V domains shown)
VH: EVQLVESGGGLVQPGGSLRLSCAASGFTFSSYMMSWVRQAPGKGLEWVATISGGGANTYYPDSVKGRFTISRDNAKNSLYLQMNSLRAEDTAVYYCARQLYYFDYWGQGTTVTVSS
VL: DIQMTQSPSSLSASVGDRVTITCLASQTIGTWLTWYQQKPGKAPKLLIYTATSLADGVPSRFSGSGSGTDFTLTISSLQPEDFATYYCQQVYSIPWTFGGGTKVEIK

Key:
[1] = system: CT-26 cells; experiment: Inhibitory effect on tumor growth in CT-26 cell-transplanted B-hPD-1 mice; type: in vivo
Description: CT-26 cells were seeded subcutaneously on the right side of hPD-1 humanized female mice at a concentration of 2.5×10^5 cells/0.1 mL, and the mice were randomly grouped by tumor volume when tumors grew to about 93 mm^3 with 7 mice per group, for a total of 4 groups:
G1: Anti-KLH hIgG4 (1 mg/kg) negative control group;
G3: palbociclib (100 mg/kg);
The experiment was ended 11 days after the first administration. Tumor volume and body weight of mice were measured and recorded twice a week. At the end of the experiment, animals were euthanized and tumor growth inhibition (TGITv%) was calculated.

[2] = system: chemotherapy-refractory ESCC; settings: chemotherapy-refractory ESCC patients in China; cited from earlier work

Molecule	TGI (%) ([1]; 11 days after the first administration, toripalimab 1 mg/kg i.p., palbociclib 100 mg/kg orally)	Tumor volume 11 days after the first administration ([1]; mean ± standard error, toripalimab 1 mg/kg i.p. twice a week, palbociclib 100 mg/kg orally once a day, 7 mice per group) [mm^3]	Anti-tumor activity [2]	Safety [2]
CC(=O)c1c(C)c2cnc(Nc3ccc(N4CCNCC4)cn3)nc2n(C2CCCC2)c1=O [palbociclib, reference compound]	44.8	1550 ± 189		
B1			effective anti-tumor activity	controllable safety
